The subject of the assay is HIV-1 reference strain NL4-3. The assay is described as follows: BiCycle assay (MT-2 then TZM-bl cells). Type of assay: cell-based. To be noted: for IC50: Human immunodeficiency virus 1, NL43, TZM-bl, read-out: BiCycle IC50 nM; for pIC50: Human immunodeficiency virus 1, NL43, MT-2 cells 72 hours then TZM-bl cells two days, NL4-3, read-out: BiCycle IC50. In outline:
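MT-2 cells were infected with NL4-3 in the presence of five-fold compound dilutions. After 72 h, the supernatant was passed to TZM-bl cells. Two days later, luciferase luminescence was read and IC50 calculated, giving a readout that spans the whole replication cycle.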

Molecules are shown by their SMILES. pIC50: −log10 of the molar value. Like-named read-outs stand apart in the source and are kept apart here. Bounds are passed on as bounds.

Usually IC50 stands for the concentration at which inhibition is half-maximal. For `COc1ccc2nc(-c3nc(O)c(O)c(C(=O)N[C@H](C)C4CCCCC4)n3)ccc2c1` [Compound 66, (R)-N-(1-cyclohexylethyl)-5,6-dihydroxy-2-(6-methoxyquinolin-2-yl)pyrimidine-4-carboxamide], the IC50 stood at 1970 nM.
The term pIC50 denotes −log10 of the IC50, conventionally taken in molar units. Turning to `Cc1ccc(-c2nc(O)c(O)c(C(=O)N[C@H](C)C3CCCCC3)n2)nc1` [Compound 41, (R)-N-(1-cyclohexylethyl)-5,6-dihydroxy-2-(5-methylpyridin-2-yl)pyrimidine-4-carboxamide], the pIC50 is 6.53.
For the compound `C[C@@H](NC(=O)c1nc(-c2ccc(C(F)(F)F)cn2)nc(O)c1O)C1CCCCC1` [Compound 36, (R)-N-(1-cyclohexylethyl)-5,6-dihydroxy-2-(5-(trifluoromethyl)pyridin-2-yl)pyrimidine-4-carboxamide], the IC50 stood at 132 nM.
With `O=C(NC1CCCCC1)c1nc(-c2ccccn2)nc(O)c1O` [Compound 4, N-cyclohexyl-5,6-dihydroxy-2-(pyridin-2-yl)pyrimidine-4-carboxamide], the IC50 is 461 nM.
Still for that read-out and setting: then `CC(NC(=O)c1nc(-c2cc(Cl)ccn2)nc(O)c1O)C1CCC(F)(F)CC1` (centres unmarked) [Compound 87, 2-(4-chloropyridin-2-yl)-N-(1-(4,4-difluorocyclohexyl)ethyl)-5,6-dihydroxypyrimidine-4-carboxamide], with 1830 nM; and `C[C@@H](NC(=O)c1nc(-c2ccccn2)nc(O)c1O)C1CCCCC1` [Compound 5, (R)-N-(1-cyclohexylethyl)-5,6-dihydroxy-2-(pyridin-2-yl)pyrimidine-4-carboxamide], with 702 nM.
For the compound `C[C@H](CC1CCCCC1)NC(=O)c1nc(-c2ccccn2)nc(O)c1O` [Compound 64, (R)-N-(1-cyclohexylpropan-2-yl)-5,6-dihydroxy-2-(pyridin-2-yl)pyrimidine-4-carboxamide], the IC50 is 210 nM.
Still for that read-out and setting: then `CC1CCC(NC(=O)c2nc(-c3ccccn3)nc(O)c2O)CC1` (centres unmarked) [Compound 56, 5,6-dihydroxy-N-(4-methylcyclohexyl)-2-(pyridin-2-yl)pyrimidine-4-carboxamide], with 341 nM; and `Cc1ccnc(-c2nc(O)c(O)c(C(=O)N[C@@H](C)C3CCCCC3)n2)c1` [Compound 79, (S)-N-(1-cyclohexylethyl)-5,6-dihydroxy-2-(4-methylpyridin-2-yl)pyrimidine-4-carboxamide], with 178 nM.
Same read-out and setting: the same measure for `C[C@H](NC(=O)c1nc(-c2cc(Cl)ccn2)nc(O)c1O)C1CCCCC1` [Compound 78, (S)-2-(4-chloropyridin-2-yl)-N-(1-cyclohexylethyl)-5,6-dihydroxypyrimidine-4-carboxamide]: 285 nM; for `CC1CCCCC1NC(=O)c1nc(-c2ccccn2)nc(O)c1O` (centres unmarked) [Compound 59, 5,6-dihydroxy-N-(2-methylcyclohexyl)-2-(pyridin-2-yl)pyrimidine-4-carboxamide]: 408 nM; for `Cc1ccnc(-c2nc(O)c(O)c(C(=O)N[C@H](C)C3CCCCC3)n2)c1` [Compound 19, (R)-N-(1-cyclohexylethyl)-5,6-dihydroxy-2-(4-methylpyridin-2-yl)pyrimidine-4-carboxamide]: 218 nM.
The same measure, in the same setting: the same measure for `Cc1cccnc1-c1nc(O)c(O)c(C(=O)OCC2CCCCC2)n1` [Compound 10, cyclohexylmethyl 5,6-dihydroxy-2-(3-methylpyridin-2-yl)pyrimidine-4-carboxylate]: 1400 nM.
On to `O=C(OCC1CCCCC1)c1nc(-c2ccccn2)nc(O)c1O` [Compound 2, cyclohexylmethyl 5,6-dihydroxy-2-(pyridin-2-yl)pyrimidine-4-carboxylate], for which the IC50 is 1780 nM.
With `Cc1cccnc1-c1nc(O)c(O)c(C(=O)NCC2CCCCC2)n1` [Compound 11, N-(cyclohexylmethyl)-5,6-dihydroxy-2-(3-methylpyridin-2-yl)pyrimidine-4-carboxamide], the IC50 was found to be 716 nM.
Still for that read-out and setting: then `C[C@@H](NC(=O)c1nc(-c2ccc(CNCc3ccccc3)cn2)nc(O)c1O)C1CCCCC1` [Compound 53, (R)-2-(5-((benzylamino)methyl)pyridin-2-yl)-N-(1-cyclohexylethyl)-5,6-dihydroxypyrimidine-4-carboxamide], with 530 nM.
For the compound `C[C@@H](NC(=O)c1nc(-c2cc(OCc3ccccc3)ccn2)nc(O)c1O)C1CCCCC1` [Compound 35, (R)-2-(4-(benzyloxy)pyridin-2-yl)-N-(1-cyclohexylethyl)-5,6-dihydroxypyrimidine-4-carboxamide], the pIC50 was 6.28.
With `O=C(NCC1CC1)c1nc(-c2ccccn2)nc(O)c1O` [Compound 3, N-(cyclopropylmethyl)-5,6-dihydroxy-2-(pyridin-2-yl)pyrimidine-4-carboxamide], the IC50 came out at 1410 nM.
Same read-out and setting: then `C[C@@H](NC(=O)c1nc(-c2cc(CCN)ccn2)nc(O)c1O)C1CCCCC1` [Compound 88, (R)-2-(4-(2-aminoethyl)pyridin-2-yl)-N-(1-cyclohexylethyl)-5,6-dihydroxypyrimidine-4-carboxamide], with 12700 nM.
As for `COc1ccnc(-c2nc(O)c(O)c(C(=O)N[C@@H](C)C3CCCCC3)n2)c1` [Compound 69, N-[(1S)-1-cyclohexylethyl]-2-(4-methoxypyridin-2-yl)-5,6-bis(oxidanyl)pyrimidine-4-carboxamide], the IC50 is 357 nM.
Consider `O=C(OCC1CCCCC1)c1nc(-c2ncccc2Cl)nc(O)c1O` [Compound 15, cyclohexylmethyl 2-(3-chloropyridin-2-yl)-5,6-dihydroxypyrimidine-4-carboxylate], for which the pIC50 is 5.01.
Turning to `C[C@@H](NC(=O)c1nc(-c2ccc3ccccc3n2)nc(O)c1O)C1CCCCC1` [Compound 22, (R)-N-(1-cyclohexylethyl)-5,6-dihydroxy-2-(quinolin-2-yl)pyrimidine-4-carboxamide], the IC50 was found to be 450 nM.
Same read-out and setting: the same measure for `CN1CCCC(CNC(=O)c2nc(-c3ccccn3)nc(O)c2O)C1` (centres unmarked) [Compound 7, 5,6-dihydroxy-N-((1-methylpiperidin-3 - yl)methyl)-2-(pyridin-2-yl)pyrimidine-4-carboxamide]: greater than 50000 nM; for `C[C@@H](NC(=O)c1nc(-c2cc(CCN(C)C)ccn2)nc(O)c1O)C1CCCCC1` [Compound 92, (R)-N-(1-cyclohexylethyl)-2-(4-(2-(dimethylamino)ethyl)pyridin-2-yl)-5,6-dihydroxypyrimidine-4-carboxamide]: 1400 nM; for `CC(NC(=O)c1nc(-c2ccccn2)nc(O)c1O)C1CCCC1` (centres unmarked) [Compound 65, N-(1-cyclopentylethyl)-5,6-dihydroxy-2-(pyridin-2-yl)pyrimidine-4-carboxamide]: 330 nM.
As to `C[C@@H](NC(=O)c1nc(-c2ccc(C(N)=O)cn2)nc(O)c1O)C1CCCCC1` [Compound 51, (R)-2-(5-carbamoylpyridin-2-yl)-N-(1-cyclohexylethyl)-5,6-dihydroxypyrimidine-4-carboxamide], the half-inhibitory concentration (IC50) came out at 10600 nM.
In the case of `CC(C)(CNC(=O)c1nc(-c2ccccn2)nc(O)c1O)C1CCCC1` [Compound 63, N-(2-cyclopentyl-2-methylpropyl)-5,6-dihydroxy-2-(pyridin-2-yl)pyrimidine-4-carboxamide], the IC50 was found to be 125 nM.
As to `C[C@@H](NC(=O)c1nc(-c2cc3ccccc3cn2)nc(O)c1O)C1CCCCC1` [Compound 25, (R)-N-(1-cyclohexylethyl)-5,6-dihydroxy-2-(isoquinolin-3-yl)pyrimidine-4-carboxamide], the IC50 stood at 32 nM.
Take `CC1CCCC(NC(=O)c2nc(-c3ccccn3)nc(O)c2O)C1` (centres unmarked) [Compound 57, 5,6-dihydroxy-N-(3-methylcyclohexyl)-2-(pyridin-2-yl)pyrimidine-4-carboxamide]: the IC50 was 432 nM.
For `O=C(NCCC1CCCCC1)c1nc(-c2ccccn2)nc(O)c1O` [Compound 6, N-(2-cyclohexylethyl)-5,6-dihydroxy-2-(pyridin-2-yl)pyrimidine-4-carboxamide], the IC50 was 2260 nM.
Take `C[C@H](NC(=O)c1nc(-c2nccc3ccccc23)nc(O)c1O)C1CCCCC1` [Compound 80, (S)-N-(1-cyclohexylethyl)-5,6-dihydroxy-2-(isoquinolin-1-yl)pyrimidine-4-carboxamide]: the concentration for half-maximal inhibition (IC50) was found to be 144 nM.
For `C[C@@H](NC(=O)c1nc(-c2ccc(CO)cn2)nc(O)c1O)C1CCCCC1` [Compound 55, (R)-N-(1-cyclohexylethyl)-5,6-dihydroxy-2-(5-(hydroxymethyl)pyridin-2-yl)pyrimidine-4-carboxamide], the IC50 turned out to be 504 nM.
On the same count and under the same terms, then `C[C@@H](NC(=O)c1nc(-c2cc(N)ccn2)nc(O)c1O)C1CCCCC1` [Compound 48, (R)-2-(4-aminopyridin-2-yl)-N-(1-cyclohexylethyl)-5,6-dihydroxypyrimidine-4-carboxamide], with 1340 nM; and `COc1ccc(-c2nc(O)c(O)c(C(=O)N[C@H](C)C3CCCCC3)n2)nc1` [Compound 32, (R)-N-(1-cyclohexylethyl)-5,6-dihydroxy-2-(5-methoxypyridin-2-yl)pyrimidine-4-carboxamide], with 341 nM.
Same read-out and setting: the same measure for `CC(=O)Nc1ccc(-c2nc(O)c(O)c(C(=O)N[C@H](C)C3CCCCC3)n2)nc1` [Compound 62, (R)-2-(5-acetamidopyridin-2-yl)-N-(1-cyclohexylethyl)-5,6-dihydroxypyrimidine-4-carboxamide]: 252 nM; for `C[C@H](NC(=O)c1nc(-c2ccc(N)cn2)nc(O)c1O)C1CCCCC1` [Compound 81, (S)-2-(5-aminopyridin-2-yl)-N-(1-cyclohexylethyl)-5,6-dihydroxypyrimidine-4-carboxamide]: 222 nM.
With `C[C@@H](NC(=O)c1nc(-c2ccc(N)cn2)nc(O)c1O)C1CCCCC1` [Compound 20, (R)-2-(5-aminopyridin-2-yl)-N-(1-cyclohexylethyl)-5,6-dihydroxypyrimidine-4-carboxamide], the IC50 worked out at 94.5 nM.
Same read-out and setting: the same measure for `C[C@H](NC(=O)c1nc(-c2cc(C(F)(F)F)ccn2)nc(O)c1O)C1CCCCC1` [Compound 52, (S)-N-(1-cyclohexylethyl)-5,6-dihydroxy-2-(4-(trifluoromethyl)pyridin-2-yl)pyrimidine-4-carboxamide]: 433 nM.

The values above are taken from EP3290412A1, “HIV-1 NUCLEOCAPSID INHIBITORS” (Università degli Studi di Siena, priority 2016, dated 2018).
